SMILES	melting point
Nc1ncc(-c2cccs2)nc1C(=O)Nc1cccnc1 [Example 6, 3-Amino-6-(2-thienyl)-N-pyridin-3-ylpyrazine-2-carboxamide]	178 to 189 °C
Nc1ncc(-c2ccc(F)cc2)nc1C(=O)Nc1cccnc1 [Example 10, 3-Amino-6-(4-fluorophenyl)-N-pyridin-3-ylpyrazine-2-carboxamide]	193 to 197 °C
Nc1ncc(-c2cccc(Cl)c2Cl)nc1C(=O)Nc1cccnc1 [Example 12, 3-Amino-6-(2,3-dichlorophenyl)-N-pyridin-3-ylpyrazine-2-carboxamide]	239 to 241 °C
Nc1ncc(-c2ccc(F)cc2F)nc1C(=O)Nc1cccnc1 [Example 14, 3-Amino-6-(2,4-difluorophenyl)-N-pyridin-3-ylpyrazine-2-carboxamide]	232 to 234 °C
Nc1ncc(-c2ccc(F)c(F)c2)nc1C(=O)Nc1cccnc1 [Example 15, 3-Amino-6-(3,4-difluorophenyl)-N-pyridin-3-ylpyrazine-2-carboxamide]	232 to 234 °C
Nc1ncc(-c2ccc(F)c(Cl)c2)nc1C(=O)Nc1cccnc1 [Example 16, 3-Amino-6-(3-chloro-4-fluorophenyl)-N-pyridin-3-ylpyrazine-2-carboxamide]	236 to 238.5 °C
Cc1cc(-c2cnc(N)c(C(=O)Nc3cccnc3)n2)ccc1F [Example 17, 3-Amino-6-[4-fluoro-3-methylphenyl]-N-pyridin-3-ylpyrazine-2-carboxamide]	186 to 189 °C
Cc1ccc(-c2cnc(N)c(C(=O)Nc3cccnc3)n2)cc1C [Example 18, 3-Amino-6-(3,4-dimethylphenyl)-N-pyridin-3-ylpyrazine-2-carboxamide]	178 to 182 °C
Nc1ncc(-c2cccc(F)c2)nc1C(=O)Nc1cccnc1 [Example 19, 3-Amino-6-(3-fluorophenyl)-N-pyridin-3-ylpyrazine-2-carboxamide]	234.5 to 238 °C
Nc1ncc(-c2ccccc2F)nc1C(=O)Nc1cccnc1 [Example 20, 3-Amino-6-(2-fluorophenyl)-N-pyridin-3-ylpyrazine-2-carboxamide]	221 to 225 °C

Source: US20040186113A1, “Heterocyclic amines for the treatment of conditions associated with gsk-3” (priority 2001, published 2004)
